# According to ChEMBL document CHEMBL5727068, “Inhibitors of PTP4A3 for the treatment of cancer” (2019):
# Target: Protein tyrosine phosphatase type IVA 3 (Homo sapiens, UniProt O75365)
# Assay: In Vitro Biochemical Evaluation: The in vitro biochemical evaluation of all compounds was carried out using recombinant human PTP4A3, overexpressed as a His6-tag fusion protein in E. coli and purified on a metal affinity column. Assays were performed using 6,8-difluoro-4-methylumbelliferyl phosphate (DiFMUP) as an artificial substrate at 25° C. for 30 min in 40 mM Tris-HCl (pH 7.0), 75 mM NaCl, 2 mM EDTA, and 4 mM DTT buffer. […] The fluorescence was measured using a SpectraMax M5 plate reader at 358 nm excitation and 455 nm emission. Fluorescence values were used to calculate the percent inhibition of enzyme activity relative to maximal activity, PTP4A3 in the absence of inhibitor, and maximal inhibition, PTP4A3 in the presence of 2 mM Na3VO4.
# Chain of Protein tyrosine phosphatase type IVA 3 (O75365 whole entry, the tested form may be a part): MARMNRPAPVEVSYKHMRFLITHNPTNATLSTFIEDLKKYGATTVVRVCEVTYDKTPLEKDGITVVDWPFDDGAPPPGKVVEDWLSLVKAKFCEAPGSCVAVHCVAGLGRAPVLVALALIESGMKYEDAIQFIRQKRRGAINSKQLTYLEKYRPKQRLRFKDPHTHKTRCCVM
smiles,measurement,value
O=c1[nH]c(=O)c2cc(-c3ccccc3)sc2[nH]1,IC50,> 250 µM
